Values belong to the compound of their own block, whether it stands above or below them.
How the values were obtained:
[1] = system: Rat Limb Bones (basal bone resorption); assay: Basal Bone Resorption Assay: 45Ca Release from Rat Limb Bones; type: cell-based
Excerpt: The purpose of this assay is to test stimulators and inhibitors of bone resorption in vitro. The release of ^45 Ca from in vitro labeled murine bone explants into the culture media is taken as an index of bone resorption.
Rat pups are labelled […] by injecting pregnant dams (18 days) with 100 μCi of ^45 Ca.
Two days after the initiation of labelling, the dam is anesthetized with halothane and killed by cervical dislocation. The pups are ablated and quickly decapitated. The calvaria (frontal and parietal bones), forelimbs (containing radii and ulnae), and hind limbs (tibiae) are removed and placed in control media in a petri dish. Bones are debrided of soft tissue by a combination of blunt dissection, and gentle rolling on bibulous paper, taking care not to disturb the periosteum. Cartilaginous ends are cut off long bones. Calvaria are cut in half along midline suture. Bones are separated into 3 categories: calvaria halves, Tibiae and ulnae/radii. Groups of eight (per bone group) are randomly placed in 24-well culture plates containing 0.5 mL of control media. Cultures are maintained at 37° C. in a humidified incubator of 95% air: 5% CO2.
These bones are incubated for 24 hours, media is aspirated from the bones and replaced with fresh media containing test substances. Each bone group has a control group of 8 and a dead bone group of 8. The devitalized cultures are obtained by heating the bones in medium at 55° C. for 60 minutes. The bones are incubated at 37° C. for an additional 72 hours. At the end of this period a 100 microliter aliquot of media is removed and placed in a scintillation vial. Ten mL of Aquasol is added, the ^45 Ca is quantified in a scintillation spectrometer. Bones are rinsed in saline, placed in a scintillation vial, hydrolyzed overnight in 0.75 mL 6N HCl at room temperature. The hydrolyzed bone solution is neutralized by the addition of 2.25 mL of 2N NaOH, followed by 10 mL of Aquasol, the ^45 Ca content is determined by scintillation spectrometry.
Analysis: ^45 Ca release into culture medium from the 24-96 hour period is individually compared to ^45 Ca release in control cultures and to devitalized bone via Dunnett's test. […]

[2] = system: Rat Limb Bones (PTH induced bone resorption); assay: Bone Resorption Assay: 45Ca Release from Rat Limb Bones (PTH Induced); type: cell-based, rat (Sprague-Dawley CD)
Description: The purpose of this assay is to identify compounds that inhibit basal or stimulated bone resorption in culture.
The ability of 2-substituted-imidazo[4,5-c]pyridines to modify the process of bone resorption was evaluated essentially as described by L.G. Raisz, Bone resorption in tissue culture. Factors influencing the response to parathyroid hormone.
Timed pregnant Sprague-Dawley CD® rats (Charles River) are administered 100 μCi ^45 CaCl2 (NEN calcium -45 NEZ-013) in 100 μL of 0.9% saline, subcutaneously, on day 18 of gestation. The rats are sacrificed the following day by CO2 asphyxiation. The fetuses are removed and the right forelimbs excised and placed in a Petri dish containing ice cold explant medium consisting of modified BGJb -Fitton Jackson media (custom formulation, Gibco No. 78-0088) adjusted to pH 7.3 to which 10 mM TES is added. […] Under a dissecting microscope, the bones are gently cleaned of adherent tissue and the cartilaginous ends removed. Incubation and drug treatment. […] The preincubation medium is brought to 37° C. prior to transfer of bones. The preincubation medium consists of the modified BGJb medium (with salts and glucose as above), pH 7.3, containing 29 mM NaHCO3. […] For compounds that require nonaqueous solvents, dilutions are made from the appropriate stock solution with medium. In these instances, basal and bone resorption stimulated controls exposed to an equivalent concentration of the vehicle are included. […] The right ulna and radius from each fetus are used. Both bones are subjected to the same treatment and each treatment group consists of bones from 4 or more fetuses. Treatments are randomly assigned using a preclinical statistics program (PS-ALLOC). After a 48 hour incubation at 37° C. in 5% CO2, the bones are removed from the medium and extracted in 0.5 mL of 0.1N HCl for 1 or more days. Duplicate 150 μL aliquots of the incubation medium and the bone extract are analyzed for ^45 Ca radioactivity in 5 mL of liquid scintillation cocktail.
The percentage of bone ^45 Ca released into the medium is determined as follows: [formula] […]

[3] = system: osteopenia induced by denervation of the sciatic nerve in rats; assay: Denervation Induced Osteopenia in Rats; type: in vivo, rat (female Sprague Dawley CD)
Excerpt: The purpose of this assay is to evaluate the effect, in rats, of agents on the reduction in bone mass (osteopenia) induced by immobilization resulting from surgical severance (denervation) of the sciatic nerve.
The animals are housed in plastic cages (4 or 5 rats/cage) with food (rat purina 500 chow) and water ad libitum; 14/10 day/night cycle.
After one week of in-house acclimatization, the animals are randomly divided into groups of 6 to 10 rats/group. Each rat is weighed, anesthetized with an intraperitoneal administration of 100 mg/kg ketamine (Bristol Laboratories, Syracuse, N.Y.) and 0.75 mg/kg Acepromazine (Aveco, Ft. Dodge, Iowa). The left hind limb is shaved and denervated by making a lateral incision parallel to the femur and by surgically removing half of a centimeter of the sciatic nerve adjacent to caudofemoralis and adductor brevis muscles. The incision is closed with wound clips. After surgery, the rats are housed in cages with absorbent bedding to minimize additional trauma to the immobilized limb. A 24 hour post-surgery recovery period is allowed before the initiation of the drug treatment.
The concentration of the drug stock is calculated to be delivered in a volume of 0.1 mL/100 gram body weight. The drug solution or a uniform suspension is prepared in 1% Tween 80 in normal saline. The drugs are administered via oral or parenteral routes daily (five times a week) for four weeks.
A sequential triple labeling of mineralized tissue is employed to determine the osseous changes (especially the bone formation) and the mineralization rates. Each animal is administered 90 mg/kg Xylenol orange (Fisher Scientific Company), S.C., 15 mg/kg Calcein (Sigma Chemical Company), S.C. and 15 mg/kg Demeclocycline (Sigma Chemical Company), i.p., approximately 21 days, 10 days and 2 days prior to the termination of the study, respectively.
At the end of the fourth week, each rat is weighed, anesthetized with an intraperitoneal administration of 100 mg/kg ketamine with 0.75 mg/kg Acepromazine and approximately 4 mL of blood collected via cardiac puncture. The anesthetized rats are euthanized by exposure to carbon dioxide. The femora and tibiae from both limbs are dissected free of soft tissue. (i) Femora are ashed at ~1100° C. for 16 hours using a muffle furnace. --(ii) Proximal tibia are fixed, dehydrated and embedded undecalcified in a methyl methacrylate-glycol methacrylate mixture. Longitudinal tissue sections (10 microns) are prepared on a Polycut S microtome (Reichert). Staining is performed on free-floating sections using a modified Goldner's stain, which are then mounted and coverslipped.
Cancellous bone content in the proximal tibia is quantified (as two dimensional bone mineral area [B.Ar]) with an image analysis processing device (software developed by Drexel University).
The areas of the tibia selected for cancellous bone content evaluation are the primary and secondary spongiosa. To select and standardize this area for evaluation, the epiphyseal growth plate-metaphyseal junction is oriented parallel to the abscissa of the digitizing screen. Bone elements 1.7 mm (secondary spongiosa) and 0.2 mm (primary spongiosa) from the growth plate and equidistant from the flanking cortical elements are then quantified as described above. The total area evaluated is 2.30 mm wide and 1.45 mm deep, constituting a 3.34 mm^2 area.
Body weight, femur mass (dried or ashed) and trabecular (cancellous) bone mineral area (B.Ar) are determined.
The difference (both absolute and percent change) in femur mass and bone mineral area between intact (control) and denervated limbs of a treatment group are compared with that for the vehicle group using a one-way analysis of variance with Dunnett's test, or other multiple comparison methods.
The results are reported in Table I and II under the heading In Vivo.

[4] = Table I, concentration not given

Structure (SMILES): COc1cccc(CSc2nc3cnccc3[nH]2)c1 [Example 2, 2-[[(3-Methoxyphenyl)methyl]thio]-1H-imidazo[4,5-c]pyridine]
- Inhibition of Bone Resorption, Basal ([1]; Table II, 10 μg/mL): Inactive
- Inhibition of Bone Resorption, PTH Induced ([2]; Table II, 10 μg/mL): Inactive
- Inhibition of Bone Resorption, In Vivo ([3]; Table II, 25 mg/kg, i.p.): Active

- IC50 ([2]; Rattus norvegicus, Table I, read-out: Inhibition of Bone Resorption, PTH Induced IC50): 49 µM
Structure (SMILES): COc1cccc(C[S+]([O-])c2nc3cnccc3[nH]2)c1 (stereo not drawn) [Example 3, 2-[[(3-Methoxyphenyl)methyl]sulfinyl]-1H-imidazo[4,5-c]pyridine]
- Inhibition of Bone Resorption, Basal ([1]; Table I, 10 μg/mL): Active
- Inhibition of Bone Resorption, PTH Induced [2, 4]: Active
- Inhibition of Bone Resorption, In Vivo ([3]; po, 672 h): Active

Structure (SMILES): COc1cccc(CS(=O)(=O)c2nc3cnccc3[nH]2)c1 [Example 4]
- Inhibition of Bone Resorption, Basal ([1]; Table I, 10 μg/mL): Marginal
- Inhibition of Bone Resorption, PTH Induced ([2]; Table I, 10 μg/mL): Active
- Inhibition of Bone Resorption, In Vivo ([3]; po, 672 h): Inactive

Structure (SMILES): Clc1ccc(CSc2nc3cnccc3[nH]2)cc1Cl [Example 5, 2-[[(3,4-Dichlorophenyl)methyl]thio]-1H-imidazo[4,5-c]pyridine]
- Inhibition of Bone Resorption, Basal ([1]; Table II, 10 μg/mL): Inactive

Structure (SMILES): [O-][S+](Cc1ccc(Cl)c(Cl)c1)c1nc2cnccc2[nH]1 (stereo not drawn) [Example 6, 2-[[(3,4-Dichlorophenyl)methyl]sulfinyl]-1H-imidazo[4,5-c]pyridine]
- Inhibition of Bone Resorption, Basal ([1]; Table I, 10 μg/mL): Active
- Inhibition of Bone Resorption, PTH Induced ([2]; Table I, 10 μg/mL): Active

Structure (SMILES): FC(F)(F)c1cccc(CSc2nc3cnccc3[nH]2)c1 [Example 7, 2-[[[3-(Trifluoromethyl)phenyl]methyl]thio]-1H-imidazo[4,5-c]pyridine]
- Inhibition of Bone Resorption, Basal ([1]; Table II, 10 μg/mL): Active

Structure (SMILES): [O-][S+](Cc1cccc(C(F)(F)F)c1)c1nc2cnccc2[nH]1 (stereo not drawn) [Example 8, 2-[[[3-(Trifluoromethyl)phenyl]methyl]-sulfinyl]-1H-imidazo[4,5-c]pyridine]
- Inhibition of Bone Resorption, Basal [1, 4]: Inactive
- Inhibition of Bone Resorption, PTH Induced ([2]; Table I, 10 μg/mL): Active

Structure (SMILES): Fc1cccc(Cl)c1CSc1nc2cnccc2[nH]1 [Example 9, 2-[[(2-Chloro-6-fluorophenyl)methyl]thio]-1H-imidazo[4,5-c]pyridine]
- Inhibition of Bone Resorption, Basal ([1]; Table II, 10 μg/mL): Inactive
- Inhibition of Bone Resorption, PTH Induced ([2]; Table II, 10 μg/mL): Inactive

Structure (SMILES): [O-][S+](Cc1c(F)cccc1Cl)c1nc2cnccc2[nH]1 (stereo not drawn) [Example 10, 2-[[(2-Chloro-6-fluorophenyl)methyl]-sulfinyl]-1H-imidazo[4,5-c]pyridine]
- Inhibition of Bone Resorption, Basal ([1]; Table I, 10 μg/mL): Active
- Inhibition of Bone Resorption, PTH Induced ([2]; Table I, 10 μg/mL): Active
- Inhibition of Bone Resorption, In Vivo ([3]; po, 672 h): Inactive

Structure (SMILES): c1ccc(CSc2nc3cnccc3[nH]2)cc1 [Example 11, 2-[[(Phenyl)methyl]thio]-1H-imidazo[4,5-c]pyridine]
- Inhibition of Bone Resorption, Basal ([1]; Table II, 10 μg/mL): Inactive

Structure (SMILES): [O-][S+](Cc1ccccc1)c1nc2cnccc2[nH]1 (stereo not drawn) [Example 12, 2-[[(Phenyl)methyl]sulfinyl]-1H-imidazo-[4,5-c]pyridine]
- Inhibition of Bone Resorption, Basal ([1]; Table I, 10 μg/mL): Active
- Inhibition of Bone Resorption, PTH Induced ([2]; Table I, 10 μg/mL): Active
- Inhibition of Bone Resorption, In Vivo ([3]; po, 672 h): Inactive

Structure (SMILES): c1ccc(CCSc2nc3cnccc3[nH]2)cc1 [Example 13, 2-[(2-Phenylethyl)thio]-1H-imidazo[4,5-c]pyridine]
- Inhibition of Bone Resorption, Basal ([1]; Table II, 10 μg/mL): Inactive
- Inhibition of Bone Resorption, PTH Induced ([2]; Table II, 10 μg/mL): Inactive

Structure (SMILES): [O-][S+](CCc1ccccc1)c1nc2cnccc2[nH]1 (stereo not drawn) [Example 14, 2-[(2-Phenylethyl)sulfinyl]-1H-imidazo[4,5-c]pyridine]
- Inhibition of Bone Resorption, Basal ([1]; Table I, 10 μg/mL): Active
- Inhibition of Bone Resorption, PTH Induced ([2]; Table I, 10 μg/mL): Active

Structure (SMILES): COc1cccc(CC[S+]([O-])c2nc3cnccc3[nH]2)c1 (stereo not drawn) [Example 17, 2-[[(3 -Methoxyphenyl)ethyl]sulfinyl]-1H-imidazo[4,5-c]pyridine]
- Inhibition of Bone Resorption, Basal ([1]; Table I, 10 μg/mL): Inactive
- Inhibition of Bone Resorption, PTH Induced ([2]; Table I, 10 μg/mL): Active
- Inhibition of Bone Resorption, In Vivo ([3]; Table I, no dose given, oral or parenteral daily (five times a week) for four weeks): Borderline

Structure (SMILES): Cc1cc(C)c(C[S+]([O-])c2nc3cnccc3[nH]2)c(C)c1 (stereo not drawn) [Example 19, 2-[[(2,4,6-Trimethylphenyl)methyl]sulfinyl]-1H-imidazo[4,5-c]pyridine]
- Inhibition of Bone Resorption, Basal ([1]; Table I, 10 μg/mL): Active
- Inhibition of Bone Resorption, PTH Induced ([2]; Table I, 10 μg/mL): Active
- Inhibition of Bone Resorption, In Vivo ([3]; po, 672 h): Inactive

Structure (SMILES): Fc1cc(Br)ccc1CSc1nc2cnccc2[nH]1 [Example 20, 2-[[(4-Bromo-2-fluorophenyl)methyl]thio]-1H-imidazo[4,5-c]pyridine]
- Inhibition of Bone Resorption, Basal ([1]; Table II, 10 μg/mL): Inactive
- Inhibition of Bone Resorption, PTH Induced ([2]; Table II, 10 μg/mL): Active

Structure (SMILES): [O-][S+](Cc1ccc(Br)cc1F)c1nc2cnccc2[nH]1 (stereo not drawn) [Example 21, 2-[[(4-Bromo-2-fluorophenyl)methyl]sulfinyl]-1H-imidazo[4,5-c]pyridine]
- Inhibition of Bone Resorption, Basal ([1]; Table I, 10 μg/mL): Active
- Inhibition of Bone Resorption, PTH Induced ([2]; Table I, 10 μg/mL): Active
- Inhibition of Bone Resorption, In Vivo ([3]; po, 672 h): Inactive

Structure (SMILES): c1ccc(COc2cccc(CSc3nc4cnccc4[nH]3)c2)cc1 [Example 22, 2-[[[3-(Phenylmethoxy)phenyl]methyl]thio]-1H-imidazo[4,5-c]pyridine]
- Inhibition of Bone Resorption, Basal ([1]; Table II, 10 μg/mL): Inactive
- Inhibition of Bone Resorption, PTH Induced ([2]; Table II, 10 μg/mL): Active

Source: patent US5081253A, “Imidazo(4,5-C)pyridines as antiosteoporotic agents” (American Home Products Corporation, priority 1990, dated 1992)
